Measurements as given in paper PMC5423295, “Positive Modulatory Interactions of NMDA Receptor GluN1/2B Ligand Binding Domains Attenuate Antagonists Activity” (Frontiers in Pharmacology, 2017).

Assays:
Experiment in all cases: two-electrode voltage clamp, Xenopus oocytes
Type in all cases: cell-based
Details in all cases: read-out: EC50 or IC50
[1] = biological target: T1, GluN1/2B NMDA receptor (GluN1a + GluN2B) (Rattus norvegicus, UniProt P35439+Q00960)
T1 construct: gene Grin1; cRNAs 1:1-3 in Xenopus oocytes; heterotetramer
T1 sequence (Q00960 27-1482, other chains not shown): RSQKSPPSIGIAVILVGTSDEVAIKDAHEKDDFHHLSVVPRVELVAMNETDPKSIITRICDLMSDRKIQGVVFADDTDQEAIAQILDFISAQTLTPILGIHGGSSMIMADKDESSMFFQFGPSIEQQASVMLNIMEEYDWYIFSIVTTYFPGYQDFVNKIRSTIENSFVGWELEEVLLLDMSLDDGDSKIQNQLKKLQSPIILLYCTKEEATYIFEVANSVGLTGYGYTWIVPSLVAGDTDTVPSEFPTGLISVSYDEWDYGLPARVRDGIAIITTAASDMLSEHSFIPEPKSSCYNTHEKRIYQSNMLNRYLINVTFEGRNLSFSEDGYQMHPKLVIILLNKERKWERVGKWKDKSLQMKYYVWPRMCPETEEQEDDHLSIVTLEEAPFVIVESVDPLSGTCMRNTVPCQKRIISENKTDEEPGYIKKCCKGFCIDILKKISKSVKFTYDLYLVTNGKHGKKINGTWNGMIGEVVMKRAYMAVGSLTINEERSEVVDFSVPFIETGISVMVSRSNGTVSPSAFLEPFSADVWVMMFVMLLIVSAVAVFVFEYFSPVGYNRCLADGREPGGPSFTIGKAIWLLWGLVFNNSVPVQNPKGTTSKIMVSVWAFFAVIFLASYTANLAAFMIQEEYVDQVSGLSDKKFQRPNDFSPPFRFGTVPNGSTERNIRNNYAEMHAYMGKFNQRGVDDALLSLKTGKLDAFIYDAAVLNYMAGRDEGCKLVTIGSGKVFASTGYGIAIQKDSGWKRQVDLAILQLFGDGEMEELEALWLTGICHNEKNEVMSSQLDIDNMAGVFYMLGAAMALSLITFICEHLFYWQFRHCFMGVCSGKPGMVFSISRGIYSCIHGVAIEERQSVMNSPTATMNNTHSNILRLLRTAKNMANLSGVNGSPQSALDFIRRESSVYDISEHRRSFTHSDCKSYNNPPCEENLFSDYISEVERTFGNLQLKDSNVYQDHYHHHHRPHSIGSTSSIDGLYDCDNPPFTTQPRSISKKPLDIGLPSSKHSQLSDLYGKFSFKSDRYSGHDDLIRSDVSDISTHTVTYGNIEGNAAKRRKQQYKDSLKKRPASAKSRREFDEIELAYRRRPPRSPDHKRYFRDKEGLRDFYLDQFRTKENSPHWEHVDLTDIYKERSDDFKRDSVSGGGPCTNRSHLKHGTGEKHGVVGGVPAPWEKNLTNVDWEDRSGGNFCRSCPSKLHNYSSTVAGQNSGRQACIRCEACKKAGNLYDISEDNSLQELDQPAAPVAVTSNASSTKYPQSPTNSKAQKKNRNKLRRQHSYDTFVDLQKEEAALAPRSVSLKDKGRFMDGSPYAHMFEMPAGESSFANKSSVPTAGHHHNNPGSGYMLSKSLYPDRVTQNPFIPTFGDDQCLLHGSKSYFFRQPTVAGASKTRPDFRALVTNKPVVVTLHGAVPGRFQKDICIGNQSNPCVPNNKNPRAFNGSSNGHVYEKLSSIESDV

[2] = biological target: T2, GluN1/2B NMDA receptor (GluN1a + GluN2B) (Rattus norvegicus, UniProt P35439+Q00960, P35439:E781A)
T2 construct: gene Grin1; cRNAs 1:1-3 in Xenopus oocytes; heterotetramer
T2 sequence (Q00960 27-1482, other chains not shown): as above
Excerpt: (§1) two-electrode voltage clamp, Xenopus oocytes on GluN1/2B NMDA receptor (GluN1a + GluN2B)

[3] = biological target: T3, GluN1/2B NMDA receptor (GluN1a + GluN2B) (Rattus norvegicus, UniProt P35439+Q00960, P35439:Y535A)
T3 construct: gene Grin1; cRNAs 1:1-3 in Xenopus oocytes; heterotetramer
T3 sequence (Q00960 27-1482, other chains not shown): as above
Excerpt: as §1

## O=C(O)c1cc(O)c2c(Cl)cc(Cl)cc2n1 [5,7-DCKA]
[1]
  IC50: 4.63 ± 0.33 µM
[2]
  IC50: 0.61 ± 0.09 µM
[3]
  IC50: 0.16 ± 0.02 µM

## NC(CCCP(=O)(O)O)C(=O)O (racemic) [DL-AP5]
[1]
  IC50: 35.7 ± 1.3 µM
